This assay is described as follows: Biochemical Assay: Compounds were solubilized in DMSO and serially diluted, using 3-fold dilutions, into 100% DMSO at a concentration 50-fold greater than the desired assay concentration. Following dilution, 1 ul was added to an empty 96-well microtiter plate. PRMT5/MEP50 protein complex was combined with H4(1-21) peptide ([…]) in PRMT5 assay buffer (50 mM Tris pH 8.5, 50 mM NaCl, 5 mM MgCl2, 1 mM EDTA, 1 mM TCEP) and 44 ul was added to the microtiter plate containing compound. S-Adenosyl-L-methionine (SAM) was prepared by combining 3H labelled SAM with unlabelled SAM in PRMT5 assay buffer such that the final SAM concentration was 10 uM and the specific activity was 0.2 uCi/ul. The reaction was initiated by adding 5 ul of SAM stock to the microtiter plate. The final reaction conditions were 10 nM PRMT5/MEP50 complex, 200 nM peptide and 1 uM SAM. Following a 25 minute incubation at room temperature, the reaction was stopped with the addition of 100 uL of 20% TCA. The 3H-peptide product was captured using a 96-well filter plate (MSIPN4B, Millipore) and washed 5 times with PBS buffer. Scintillation fluid (100 ul) was added to the dried filter plate and counted in a liquid scintillation counter. IC50 values were determined by fitting the data to the standard 4-parameter dose response equation using Pfizer proprietary software.

This passage reports IC50 results from ChEMBL document CHEMBL5727820, “Substituted carbonucleoside derivatives useful as anticancer agents” (2020).

“And” between values parts separate entries of the source, which are not always exact repeats. Equal values may be shown once.

Usually IC50 stands for the concentration that gives 50% inhibition. `Cc1cccc(CC(O)[C@H]2C[C@@H](n3ccc4c(C)ncnc43)[C@H](O)[C@@H]2O)n1` (some centres not stated): the IC50 was greater than 200000 nM.

For `Cc1nc(N)nc2c1ccn2[C@@H]1C[C@H]([C@@H](O)c2ccc(F)c(F)c2)[C@@H](O)[C@H]1O`, the IC50 turned out to be 5 nM.

For the molecule `O[C@@H]1[C@H](O)[C@@H]([C@@H](O)c2ccc(F)c(F)c2)C[C@H]1Nc1ncnc2[nH]ccc12`, the IC50 came to 449 nM.

For the molecule `Nc1ncnc2c1c(F)cn2[C@@H]1C[C@H](Oc2cccc3c2CNCC3)[C@@H](O)[C@H]1O`, the IC50 was 8 nM and 28 nM.

Consider `Cc1cc(N[C@@H]2C[C@H](Oc3ccccc3C#N)[C@@H](O)[C@H]2O)ncn1`, for which the IC50 was greater than 200000 nM.

Take `N#Cc1cccc2c(N[C@@H]3C[C@H](C(O)c4ccc(F)c(F)c4)[C@@H](O)[C@H]3O)ncnc12` (some centres not stated): the IC50 was greater than 200000 nM.

Take `Cc1ncnc2c1ccn2[C@@H]1C[C@@H]([C@H](CN)c2ccc(F)cc2)[C@@H](O)[C@H]1O`: the IC50 came out at 906 nM.

Consider `Cc1nc(N)c2c(C)cn([C@@H]3C[C@H](Oc4cc(F)c(F)c5c4CNCC5)[C@@H](O)[C@H]3O)c2n1`, for which the IC50 came to 1 nM.

For the molecule `Cc1ncnc2c1ccn2[C@@H]1C[C@H](Oc2ccccc2CN)[C@@H](O)[C@H]1O`, the IC50 was 1060 nM.

Consider `Cc1ncnc2c1ccn2C1C[C@H](Oc2cccc3c2CNCC3)[C@@H](O)[C@H]1O` (some centres not stated), for which the IC50 worked out at 1 nM.

Turning to `CN(c1ncnc(N)n1)[C@@H]1C[C@H]([C@@H](O)c2ccc(F)c(F)c2)[C@@H](O)[C@H]1O`, the IC50 was determined as 266 nM.

Regarding `Cc1ncnc2c1ccn2[C@@H]1C[C@H](Oc2ccc(F)cc2[C@@H](C)N)[C@@H](O)[C@H]1O`, the IC50 worked out at 2 nM.

Consider `Cc1cc(N[C@@H]2C[C@H]([C@@H](O)c3ccc(F)c(F)c3)[C@@H](O)[C@H]2O)ncn1`, for which the IC50 was 59500 nM.

For `Cc1ncnc2c1ccn2[C@@H]1CC([C@](C)(O)c2ccc(F)cc2)[C@@H](O)[C@H]1O` (some centres not stated), the IC50 stood at 17100 nM.

On to `Cc1ncnc(N(C)[C@@H]2C[C@@H]([C@H](O)c3ccc(F)c(F)c3)[C@@H](O)[C@H]2O)n1`, for which the IC50 turned out to be 29500 nM.

On to `Cc1ncnc2c1ccn2[C@@H]1C[C@H](Oc2cc(C(F)F)c(F)c3c2CNCC3)C(O)=C1O`, for which the IC50 is 1 nM.

On to `Cc1ncnc2c1ccn2[C@@H]1C[C@H](Oc2ccc(F)cc2[C@H](C)N)[C@@H](O)[C@H]1O`, for which the IC50 amounted to 123 nM.

`CN(c1ncnc(N)n1)[C@@H]1C[C@@H]([C@H](O)c2ccc(F)c(F)c2)[C@@H](O)[C@H]1O`: the IC50 amounted to 15700 nM.

On to `Cc1cc(N[C@@H]2C[C@H]([C@H](O)c3ccc(F)c(F)c3)[C@@H](O)[C@H]2O)ncn1`, for which the IC50 was determined as 3580 nM.

Regarding `Cc1cc(N[C@@H]2C[C@H](Oc3ccc(F)cc3C#N)[C@@H](O)[C@H]2O)ncn1`, the IC50 is greater than 200000 nM.

Turning to `Cc1cc(N[C@H]2C[C@@H](Oc3ccccc3C#N)[C@H](O)[C@@H]2O)ncn1`, the IC50 is greater than 200000 nM.

With `CO[C@H]1C[C@H](n2ccc3c(C)ncnc32)[C@H](O)[C@@H]1O`, the IC50 came to 5740 nM.

On to `Cc1nc(N)nc2c1ccn2[C@@H]1C[C@@H]([C@H](O)c2ccc(F)c(F)c2)[C@@H](O)[C@H]1O`, for which the IC50 stood at 105 nM.

For the molecule `Cc1ncnc2c1ccn2[C@@H]1C[C@H]([C@@H](F)c2ccc(F)cc2)[C@@H](O)[C@H]1O`, the IC50 is 3 nM.

For the molecule `Nc1ncnc2c1ccn2[C@@H]1C[C@H]([C@@H](O)c2ccc(Cl)c(F)c2)[C@@H](O)[C@H]1O`, the IC50 worked out at 572 nM.

Consider `COC(=O)c1cc(F)ccc1O[C@H]1C[C@@H](n2ccc3c(C)ncnc32)[C@H](O)[C@@H]1O`, for which the IC50 worked out at 10200 nM.

As to `Cc1ncnc2c1ccn2[C@H]1C[C@@H](Oc2ccccc2CN)[C@H](O)[C@@H]1O`, the IC50 is 25 nM.

Consider `Cc1cc(N[C@H]2C[C@@H](Oc3ccc(F)cc3C#N)[C@H](O)[C@@H]2O)ncn1`, for which the IC50 was greater than 200000 nM.

In the case of `O[C@@H]1[C@H](O)[C@H]([C@H](O)c2ccc(F)c(F)c2)C[C@H]1Nc1ncnc2[nH]ccc12`, the IC50 was determined as 5770 nM.

`Cc1ncnc2c1ccn2[C@@H]1C[C@H]([C@@H](O)c2ccc(F)cc2)[C@@H](O)[C@H]1O`: the IC50 turned out to be 289 nM.

With `CN(c1cc(N)ncn1)[C@@H]1C[C@H]([C@@H](O)c2ccc(F)c(F)c2)[C@@H](O)[C@H]1O`, the IC50 was 879 nM.

With `Cc1cn([C@@H]2C[C@H](Oc3ccc(F)c4c3CNCC4)[C@@H](O)[C@H]2O)c2ncnc(Cl)c12`, the IC50 amounted to 1 nM.

As for `N#Cc1cccc2c(N[C@H]3C[C@H](C(O)c4ccc(F)c(F)c4)[C@@H](O)[C@H]3O)ncnc12` (some centres not stated), the IC50 is greater than 200000 nM.

With `Cc1ncnc2c1ccn2[C@@H]1C[C@H]([C@H](F)c2ccc(F)cc2)[C@@H](O)[C@H]1O`, the IC50 was 217 nM.

On to `O[C@@H]1[C@H](O)[C@@H](Oc2cccc3c2CNCC3)C[C@H]1n1cc(F)c2c(Cl)ncnc21`, for which the IC50 turned out to be 2 nM.

Regarding `Cc1ncnc2c1ccn2[C@@H]1C[C@H]([C@@H](CN)c2ccc(F)cc2)[C@@H](O)[C@H]1O`, the IC50 was 676 nM.

In the case of `Cc1ncnc(N(C)[C@@H]2C[C@H]([C@@H](O)c3ccc(F)c(F)c3)[C@@H](O)[C@H]2O)n1`, the IC50 was 297 nM.

For `Nc1ncnc2c1ccn2[C@@H]1C[C@@H]([C@H](O)c2ccc(Cl)c(F)c2)[C@@H](O)[C@H]1O`, the IC50 was determined as 71 nM.

Turning to `Cc1ncnc2c1ccn2[C@@H]1CC([C@@](C)(O)c2ccc(F)cc2)[C@@H](O)[C@H]1O` (some centres not stated), the IC50 was 64 nM.

For `Cc1ncnc2c1ccn2[C@@H]1C[C@H]([C@](F)(CN)c2ccc(F)cc2)[C@@H](O)[C@H]1O`, the IC50 came out at 18900 nM.

`Cc1ncnc2c1ccn2[C@@H]1C[C@H](Oc2ccc(F)c3c2CNC[C@H]3C)[C@@H](O)[C@H]1O`: the IC50 is 1 nM.

`CN(c1cc(N)ncn1)[C@@H]1C[C@@H]([C@H](O)c2ccc(F)c(F)c2)[C@@H](O)[C@H]1O`: the IC50 came to 17000 nM.

Take `Cc1nccc(N[C@@H]2C[C@H]([C@H](O)c3ccc(F)c(F)c3)[C@@H](O)[C@H]2O)n1`: the IC50 stood at 150 nM.

As to `Cc1ncnc2c1ccn2[C@@H]1C[C@H](Oc2ccc(F)c3c2CNC[C@@H]3C)[C@@H](O)[C@H]1O`, the IC50 is 2 nM.

Turning to `CO[C@@H]1C[C@H](n2ccc3c(C)ncnc32)[C@H](O)[C@@H]1O`, the IC50 was 2120 nM.

Turning to `CN(c1ccncn1)[C@@H]1C[C@@H]([C@H](O)c2ccc(F)c(F)c2)[C@@H](O)[C@H]1O`, the IC50 was 15700 nM.

In the case of `CN(c1ccncn1)[C@@H]1C[C@H]([C@@H](O)c2ccc(F)c(F)c2)[C@@H](O)[C@H]1O`, the IC50 is 466 nM.
